In patent US12023333B2, “Phenyl-sulfamoyl.benzoyc acids as ERAP1 modulators” (GREY WOLF THERAPEUTICS LIMITED, priority 2019, dated 2024):

Biological target: T1, Purified ERAP1(37-941)-10His (ERAP1) (Homo sapiens, UniProt Q9NZ08)
T1 construct: Purified ERAP1(37-941)-10His (ERAP1); 10His (C)
Test: ERAP1 mediated hydrolysis of an amide substrate measured in a biochemical system (10-mer decapeptide substrate)
Conditions: 10-mer substrate, 23° C. for 1 h, excitation 279 nm and emission 355 nm; read-out: IC50 vs Decapeptide WRVYEKC(Dnp)ALK-acid (where Dnp is Dinitrophenyl maleimide) (10-mer)
Protocol: Biological Assay 1: ERAP1 Mediated Hydrolysis of an Amide Substrate Measured in a Biochemical System
1× Assay buffer (AB): 25 mM Bis-tris propane, 0.05% w/v Hydroxypropylmethylcellulose pH 7.75 made with Optima grade water
Decapeptide WRVYEKC(Dnp)ALK-acid (where Dnp is Dinitrophenyl maleimide) (10-mer) L-Leucine 7-amido-4-methylcoumarin (L-AMC)
12.5 μL ERAP1 enzyme in 1×AB was combined with 250 nL test compound in DMSO. 12.5 μL of either 240 μM L-AMC in 1×AB or 100 μM 10-mer in 1×AB was added to the reaction and incubated at 23° C. for 1 h. For detection, plates were read at excitation 365 nm and emission 442 nm (L-AMC) or excitation 279 nm and emission 355 nm (10-mer). Compound IC50 was determined using a 4 parameter equation.

T1 sequence (Q9NZ08 37-941): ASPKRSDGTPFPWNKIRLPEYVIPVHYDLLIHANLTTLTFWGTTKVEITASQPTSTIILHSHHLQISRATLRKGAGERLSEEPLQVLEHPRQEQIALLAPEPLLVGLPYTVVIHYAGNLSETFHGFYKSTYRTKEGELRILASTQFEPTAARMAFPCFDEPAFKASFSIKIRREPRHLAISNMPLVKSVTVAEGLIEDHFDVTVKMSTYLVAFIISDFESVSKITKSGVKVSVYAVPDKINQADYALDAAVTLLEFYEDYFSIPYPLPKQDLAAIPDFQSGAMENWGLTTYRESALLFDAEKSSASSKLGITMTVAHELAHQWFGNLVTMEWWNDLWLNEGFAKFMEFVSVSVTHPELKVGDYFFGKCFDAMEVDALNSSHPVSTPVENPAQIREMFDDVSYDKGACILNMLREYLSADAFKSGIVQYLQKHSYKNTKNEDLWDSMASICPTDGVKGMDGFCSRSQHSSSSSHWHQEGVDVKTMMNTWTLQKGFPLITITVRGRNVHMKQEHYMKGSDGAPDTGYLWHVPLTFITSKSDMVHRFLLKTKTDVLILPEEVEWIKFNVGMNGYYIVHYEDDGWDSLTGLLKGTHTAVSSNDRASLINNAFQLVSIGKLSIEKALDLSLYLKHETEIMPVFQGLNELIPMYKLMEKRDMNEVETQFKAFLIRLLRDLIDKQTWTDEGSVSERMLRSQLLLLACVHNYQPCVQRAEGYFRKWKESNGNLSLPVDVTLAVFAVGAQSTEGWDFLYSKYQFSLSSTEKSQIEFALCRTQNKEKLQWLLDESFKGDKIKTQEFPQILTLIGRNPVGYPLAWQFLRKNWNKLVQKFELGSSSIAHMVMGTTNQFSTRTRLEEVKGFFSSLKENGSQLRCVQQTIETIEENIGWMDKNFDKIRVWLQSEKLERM

IC50 [nM] | SMILES
< 500 | N#Cc1ccc(-c2cccs2)c(NS(=O)(=O)c2cc(C(=O)O)ccc2C2CC2)c1 [Example 75, 3-(N-(5-cyano-2-(thiophen-2-yl)phenyl)sulfamoyl)-4-cyclopropylbenzoic acid]
< 500 | O=C(O)c1ccc(C2CC2)c(S(=O)(=O)Nc2cc(C(F)(F)F)ccc2-c2cccs2)c1 [Example 76, 4-cyclopropyl-3-(N-(2-(thiophen-2-yl)-5-(trifluoromethyl)phenyl)sulfamoyl)benzoic acid]
< 500 | CCc1ccc(C(=O)O)cc1S(=O)(=O)Nc1cc(C(F)(F)F)ccc1-c1ccc(C#N)s1 [Example 77, 3-(N-(2-(5-cyanothiophen-2-yl)-5-(trifluoromethyl)phenyl)sulfamoyl)-4-ethylbenzoic acid]
< 500 | COc1ccc(C(=O)O)cc1S(=O)(=O)Nc1cc(S(C)(=O)=O)ccc1-c1cccs1 [Example 78, 4-methoxy-3-(N-(5-(methylsulfonyl)-2-(thiophen-2-yl)phenyl)sulfamoyl) benzoic acid]
< 500 | COc1ccc(C(=O)O)cc1S(=O)(=O)Nc1cc(C(F)(F)F)ccc1-c1ccc(C)s1 [Example 79, 4-methoxy-3-(N-(2-(5-methylthiophen-2-yl)-5-(trifluoromethyl)phenyl)sulfamoyl)benzoic acid]
< 500 | CCc1ccc(C(=O)O)cc1S(=O)(=O)Nc1cc(C#N)ccc1-c1ccc(C)s1 [Example 80, 3-(N-(5-cyano-2-(5-methylthiophen-2-yl)phenyl)sulfamoyl)-4-ethylbenzoic acid]
< 500 | COc1ccc(C(=O)O)cc1S(=O)(=O)Nc1cc(C#N)ccc1-c1ccc(C)s1 [Example 81, 3-(N-(5-cyano-2-(5-methylthiophen-2-yl)phenyl)sulfamoyl)-4-methoxybenzoic acid]
< 500 | CS(=O)(=O)c1ccc(-c2ccccn2)c(NS(=O)(=O)c2cc(C(=O)O)ccc2C2CC2)c1 [Example 82, 4-cyclopropyl-3-(N-(5-(methylsulfonyl)-2-(pyridin-2-yl)phenyl)sulfamoyl) benzoic acid]
< 500 | N#Cc1ccc(-c2ccccn2)c(NS(=O)(=O)c2cc(C(=O)O)ccc2C2CC2)c1 [Example 83, 3-(N-(5-cyano-2-(pyridin-2-yl)phenyl)sulfamoyl)-4-cyclopropylbenzoic acid]
< 500 | CCc1ccc(C(=O)O)cc1S(=O)(=O)Nc1cc(S(C)(=O)=O)ccc1-c1ccc(C)s1 [Example 84, 4-ethyl-3-(N-(5-(methylsulfonyl)-2-(5-methylthiophen-2-yl)phenyl)sulfamoyl) benzoic acid]
< 500 | COc1ccc(C(=O)O)cc1S(=O)(=O)Nc1cc(S(C)(=O)=O)ccc1-c1ccc(C)s1 [Example 85, 4-methoxy-3-(N-(5-(methylsulfonyl)-2-(5-methylthiophen-2-yl)phenyl)sulfamoyl)benzoic acid]
< 500 | Cc1ccc(-c2ccc(C(F)(F)F)cc2NS(=O)(=O)c2cc(C(=O)O)ccc2C2CC2)s1 [Example 86, 4-cyclopropyl-3-(N-(2-(5-methylthiophen-2-yl)-5-(trifluoromethyl)phenyl)sulfamoyl)benzoic acid]
< 500 | COc1ccc(C(=O)O)cc1S(=O)(=O)Nc1cc(C(F)(F)F)ccc1-c1ccc(Cl)s1 [Example 87, 3-(N-(2-(5-chlorothiophen-2-yl)-5-(trifluoromethyl)phenyl)sulfamoyl)-4-methoxybenzoic acid]
< 500 | COc1ccc(C(=O)O)cc1S(=O)(=O)Nc1cc(S(C)(=O)=O)ccc1-c1ccc(Cl)s1 [Example 88, 3-(N-(2-(5-chlorothiophen-2-yl)-5-(methylsulfonyl)phenyl)sulfamoyl)-4-methoxybenzoic acid]
< 500 | CCc1ccc(C(=O)O)cc1S(=O)(=O)Nc1cc(S(C)(=O)=O)ccc1-c1ccc(Cl)s1 [Example 89, 3-(N-(2-(5-chlorothiophen-2-yl)-5-(methylsulfonyl)phenyl)sulfamoyl)-4-ethylbenzoic acid]
< 500 | COc1ccc(C(=O)O)cc1S(=O)(=O)Nc1cc(C#N)ccc1-c1ccc(Cl)s1 [Example 90, 3-(N-(2-(5-chlorothiophen-2-yl)-5-cyanophenyl)sulfamoyl)-4-methoxybenzoic acid]
< 500 | CCc1ccc(C(=O)O)cc1S(=O)(=O)Nc1cc(C#N)ccc1-c1ccc(Cl)s1 [Example 91, 3-(N-(2-(5-chlorothiophen-2-yl)-5-cyanophenyl)sulfamoyl)-4-ethylbenzoic acid]
< 500 | O=C(O)c1ccc(C2CC2)c(S(=O)(=O)Nc2cc(C(F)(F)F)ccc2-c2cccc(F)c2)c1 [Example 92, 4-cyclopropyl-3-(N-(3′-fluoro-4-(trifluoromethyl)-[1,1′-biphenyl]-2-yl)sulfamoyl)benzoic acid]

IC50 [nM] | SMILES
< 500 | CS(=O)(=O)c1ccc(-c2cccc(F)c2)c(NS(=O)(=O)c2cc(C(=O)O)ccc2C2CC2)c1 [Example 93, 4-cyclopropyl-3-(N-(3′-fluoro-4-(methylsulfonyl)-[1,1′-biphenyl]-2-yl)sulfamoyl)benzoic acid]
< 500 | N#Cc1ccc(-c2cccc(F)c2)c(NS(=O)(=O)c2cc(C(=O)O)ccc2C2CC2)c1 [Example 94, 3-(N-(4-cyano-3′-fluoro-[1,1-biphenyl]-2-yl)sulfamoyl)-4-cyclopropylbenzoic acid]
< 500 | Cc1ccc(-c2ccc(C#N)cc2NS(=O)(=O)c2cc(C(=O)O)ccc2C2CC2)s1 [Example 95, 3-(N-(5-cyano-2-(5-methylthiophen-2-yl)phenyl)sulfamoyl)-4-cyclopropylbenzoic acid]
< 500 | N#Cc1ccc(-c2ccccc2)c(NS(=O)(=O)c2cc(C(=O)O)ccc2C2CC2)c1 [Example 96, 3-(N-(4-cyano-[1,1′-biphenyl]-2-yl)sulfamoyl)-4-cyclopropylbenzoic acid]
< 500 | N#Cc1ccc(-c2cccnc2)c(NS(=O)(=O)c2cc(C(=O)O)ccc2C2CC2)c1 [Example 97, 3-(N-(5-cyano-2-(pyridin-3-yl)phenyl)sulfamoyl)-4-cyclopropylbenzoic acid]
< 500 | O=C(O)c1ccc(C2CC2)c(S(=O)(=O)Nc2cc(C(F)(F)F)ccc2-c2cccnc2)c1 [Example 98, 4-cyclopropyl-3-(N-(2-(pyridin-3-yl)-5-(trifluoromethyl)phenyl)sulfamoyl)benzoic acid]
< 500 | O=C(O)c1ccc(C2CC2)c(S(=O)(=O)Nc2cc(C(F)(F)F)ccc2-n2cccc2)c1 [Example 99, 3-(N-(2-pyrrol-1-yl-5-(trifluoromethyl)phenyl)sulfamoyl)-4-cyclopropylbenzoic acid]
< 500 | COc1ccc(C(=O)O)cc1S(=O)(=O)Nc1cc(C#N)ccc1-c1ccc(F)s1 [Example 100, 3-(N-(5-cyano-2-(5-fluorothiophen-2-yl)phenyl)sulfamoyl)-4-methoxybenzoic acid]
< 500 | CCc1ccc(C(=O)O)cc1S(=O)(=O)Nc1cc(C#N)ccc1-c1ccc(F)s1 [Example 101, 3-(N-(5-cyano-2-(5-fluorothiophen-2-yl)phenyl)sulfamoyl)-4-ethylbenzoic acid]
< 500 | N#Cc1ccc(-c2ccc(F)s2)c(NS(=O)(=O)c2cc(C(=O)O)ccc2C2CC2)c1 [Example 102, 3-(N-(5-cyano-2-(5-fluorothiophen-2-yl)phenyl)sulfamoyl)-4-cyclopropylbenzoic acid]
< 500 | Cc1ccc(-c2ccc(S(C)(=O)=O)cc2NS(=O)(=O)c2cc(C(=O)O)ccc2C2CC2)s1 [Example 103, 4-cyclopropyl-3-(N-(5-(methylsulfonyl)-2-(5-methylthiophen-2-yl)phenyl)sulfamoyl)benzoic acid]
< 500 | CCc1ccc(C(=O)O)cc1S(=O)(=O)Nc1cc(C(N)=O)ccc1-c1ccccn1 [Example 104, 3-(N-(5-carbamoyl-2-(pyridin-2-yl)phenyl)sulfamoyl)-4-ethylbenzoic acid]
< 500 | COc1ccc(C(=O)O)cc1S(=O)(=O)Nc1cc(S(C)(=O)=O)ccc1-c1ccc(F)s1 [Example 105, 3-(N-(2-(5-fluorothiophen-2-yl)-5-(methylsulfonyl)phenyl)sulfamoyl)-4-methoxybenzoic acid]
< 500 | CCc1ccc(C(=O)O)cc1S(=O)(=O)Nc1cc(S(C)(=O)=O)ccc1-c1ccc(F)s1 [Example 106, 4-ethyl-3-(N-(2-(5-fluorothiophen-2-yl)-5-(methylsulfonyl)phenyl)sulfamoyl)benzoic acid]
< 500 | CCc1ccc(C(=O)O)cc1S(=O)(=O)Nc1cc(C#N)ccc1-n1cccc1 [Example 107, 3-(N-(5-cyano-2-(pyrrol-1-yl)phenyl)sulfamoyl)-4-ethylbenzoic acid]
< 500 | CCc1ccc(C(=O)O)cc1S(=O)(=O)Nc1cc(S(C)(=O)=O)ccc1-n1cccc1 [Example 108, 4-ethyl-3-(N-(5-(methylsulfonyl)-2-(pyrrol-1-yl)phenyl)sulfamoyl)benzoic acid]
< 500 | N#Cc1ccc(-n2cccc2)c(NS(=O)(=O)c2cc(C(=O)O)ccc2C2CC2)c1 [Example 109, 3-(N-(5-cyano-2-(pyrrol-1-yl)phenyl)sulfamoyl)-4-cyclopropylbenzoic acid]
< 500 | CS(=O)(=O)c1ccc(-n2cccc2)c(NS(=O)(=O)c2cc(C(=O)O)ccc2C2CC2)c1 [Example 110, 4-cyclopropyl-3-(N-(5-(methylsulfonyl)-2-(pyrrol-1-yl)phenyl)sulfamoyl) benzoic acid]
